The values that follow come from PubChem BioAssay AID1960 (Broad Institute, 2009).

Records with an inconclusive call do not appear. The source made the active and inactive calls. No rule for the calls is given here.

The target of the assay is Zinc finger protein mex-5 (Caenorhabditis elegans) (UniProt Q9XUB2). Briefly: potency of MEX-5 RNA-binding blockers – biochemical, fluorescence polarization, dose response (AID 1960). The note with it: MEX-5/FITC-TCR2 RNA fluorescence polarization, 1 h.
Zinc finger protein mex-5 (Caenorhabditis elegans), sequence (Q9XUB2 whole entry, looked up): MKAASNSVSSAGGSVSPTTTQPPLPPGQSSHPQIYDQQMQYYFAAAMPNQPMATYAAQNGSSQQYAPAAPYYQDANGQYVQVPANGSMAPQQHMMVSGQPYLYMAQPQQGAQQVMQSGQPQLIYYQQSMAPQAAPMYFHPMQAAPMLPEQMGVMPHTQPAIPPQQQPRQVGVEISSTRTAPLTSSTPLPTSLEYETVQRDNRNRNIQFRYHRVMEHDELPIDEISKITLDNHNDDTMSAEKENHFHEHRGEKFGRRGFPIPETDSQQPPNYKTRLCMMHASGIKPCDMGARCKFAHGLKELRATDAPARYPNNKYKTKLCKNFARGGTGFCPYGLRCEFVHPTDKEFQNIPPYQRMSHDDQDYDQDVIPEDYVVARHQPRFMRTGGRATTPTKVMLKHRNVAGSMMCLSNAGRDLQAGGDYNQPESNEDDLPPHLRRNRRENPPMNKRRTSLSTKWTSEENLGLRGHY

In general, EC50 refers to the concentration at which the effect is half-maximal. Take `CC[C@H](C)/C=C(C)/C=C/C1=CC2=C(Cl)C(=O)[C@@](C)(OC(C)=O)C(=O)C2=CO1`: the concentration giving a half-maximal response (EC50) is 17.8 µM.

On to `Cc1cc(/C=C2/C(=O)NC(=O)N(Cc3ccco3)C2=O)c(C)n1-c1ccc(C(=O)O)cc1`, for which the EC50 was > 30 µM (inactive).

`CCC(C)/C=C(C)/C=C/C1=CC2=C(Cl)C(=O)C(C)(OC(C)=O)C(=O)C2=CO1` (centres undefined): the EC50 was > 30 µM (inactive).

In the case of `CCN(CC)c1ccc(N=Cc2c(O)n(Cc3ccccc3)c(=O)[nH]c2=O)cc1`, the EC50 is > 30 µM (inactive).
